Among the data in US20220289753A1, “SHP2 INHIBITORS” (IRBM S.P.A., priority 2019, published 2022) are IC50 values, retold here.

Structures are written as SMILES.

The target of this assay is T1, SHP-2 enzyme (Met1-Leu525) (Homo sapiens, UniProt Q06124).
T1 construct: synthetized by Origene, Met1-Leu525, cat #TP750155; purchased Origene TP750155
T1 sequence (Q06124 1-525): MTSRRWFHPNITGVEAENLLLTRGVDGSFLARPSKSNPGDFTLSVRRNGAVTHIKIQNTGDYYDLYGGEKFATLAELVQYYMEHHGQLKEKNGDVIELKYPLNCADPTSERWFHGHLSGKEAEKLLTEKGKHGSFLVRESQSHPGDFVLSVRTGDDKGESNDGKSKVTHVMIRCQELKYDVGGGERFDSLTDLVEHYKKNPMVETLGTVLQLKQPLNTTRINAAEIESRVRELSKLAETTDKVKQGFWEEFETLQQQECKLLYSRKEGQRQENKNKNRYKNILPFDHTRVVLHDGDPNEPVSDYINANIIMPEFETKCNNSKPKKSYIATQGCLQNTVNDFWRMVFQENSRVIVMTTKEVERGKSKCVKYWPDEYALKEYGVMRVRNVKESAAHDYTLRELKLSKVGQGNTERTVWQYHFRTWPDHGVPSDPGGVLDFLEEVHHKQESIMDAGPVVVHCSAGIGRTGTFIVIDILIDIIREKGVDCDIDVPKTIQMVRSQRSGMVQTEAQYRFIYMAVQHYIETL
Description: SHP2 inhibition enzymatic assay (DiFMUP substrate, IRS1 peptide activation). In kind it is biochemical. To be noted: SHP2 wt; activated by 500 nM IRS1 peptide; 75 μM DiFMUP substrate. On the procedure:
SHP2 Inhibition Enzymatic Assay
Assay volume of 20 μL/well was assembled in 384 well black polystyrene low-binding microplates (Greiner), using the following buffer: 60 mM HEPES pH 7.2, 75 mM NaCl, 75 mM KCl, 1 mM EDTA pH 8, 0.05% tween-20, 5 mM DTT. The SHP-2 enzyme (synthetized by Origene, Met1-Leu525, cat #TP750155) was used at a final concentration of 0.5 nM.
Briefly, DMSO serially diluted testing compounds were transferred to the bottom of the assay plate. SHP2 was then added together with the IRS1 peptide. 30 minutes post incubation, the DiFMUP substrate was added to the reaction and incubated 30 min at room temperature. […] The fluorescence was detected by a microplate reader (Envision, PerkinElmer) according to the DiFMUP excitation and emission wavelength. The lower the fluorescence the higher the SHP2 inhibition.
The percentage inhibition is fitted against the compound dilutions with a four-parameter logistic regression. The inflection point (i.e. the concentration at which half-maximal inhibition is achieved) is the IC50.
As to `CC1(N)CCN(c2nc3nc(Sc4cccc(S(F)(F)(F)(F)F)c4)cnc3[nH]2)CC1` [Example 93, 4-methyl-1-(5-((3-(pentafluoro-l6-sulfaneyl)phenyl)thio)-1H-imidazo[4,5-b]pyrazin-2-yl)piperidin-4-amine], the IC50 fell in the range of 0.5 to 3 µM.

`CC1(N)CCN(c2nc3nc(Sc4cc(C(F)(F)F)ccc4Cl)cnc3[nH]2)CC1` [Example 36, 1-(5-((2-chloro-5-(trifluoromethyl)phenyl)thio)-1H-imidazo[4,5-b]pyrazin-2-yl)-4-methylpiperidin-4-amine] registered a 50% inhibitory concentration (IC50) of 0.5 to 3 µM.

Take `CC1(N)CCN(c2nc3nc(Sc4cccc5cnccc45)cnc3[nH]2)CC1` [Example 70, 1-(5-(isoquinolin-5-ylthio)-1H-imidazo[4,5-b]pyrazin-2-yl)-4-methylpiperidin-4-amine]: the IC50 is < 0.5 µM.

`Cn1c(N2CCC(C)(N)CC2)nc2ncc(Sc3cccnc3C(F)(F)F)nc21` [Example 4, 4-methyl-1-(1-methyl-6-((2-(trifluoromethyl)pyridin-3-yl)thio)-1H-imidazo[4,5-b]pyrazin-2-yl)piperidin-4-amine] returned an IC50 of 0.5 to 3 µM.

`CC1(N)CCN(c2nc3nc(Sc4ccnc5ncccc45)cnc3[nH]2)CC1` [Example 105, 1-(5-((1,8-naphthyridin-4-yl)thio)-1H-imidazo[4,5-b]pyrazin-2-yl)-4-methylpiperidin-4-amine]: the IC50 was 0.5 to 3 µM.

`NCC1CN(c2nc3nc(Sc4cccnc4C(F)(F)F)cnc3[nH]2)C1` [Example 55, (1-(5-((2-(trifluoromethyl)pyridin-3-yl)thio)-1H-imidazo[4,5-b]pyrazin-2-yl)azetidin-3-yl)methanamine] yielded a half-inhibitory concentration (IC50) of 0.5 to 3 µM.

With `CN1CCOc2ccc(Sc3cnc4[nH]c(N5CCC(C)(N)CC5)nc4n3)cc21` [Example 67, 4-methyl-1-(5-((4-methyl-3,4-dihydro-2H-benzo[b][1,4]oxazin-6-yl)thio)-1H-imidazo[4,5-b]pyrazin-2-yl)piperidin-4-amine], the concentration for half-maximal inhibition (IC50) was > 3 µM.

Take `COc1ccc2nc(Sc3cnc4[nH]c(N5CCC(C)(N)CC5)nc4n3)ccc2c1` [Example 69, 1-(5-((6-methoxyquinolin-2-yl)thio)-1H-imidazo[4,5-b]pyrazin-2-yl)-4-methylpiperidin-4-amine]: the IC50 was 0.5 to 3 µM.

In the case of `CC1(N)CCN(c2nc3nc(Sc4ccncc4Cl)cnc3[nH]2)CC1` [Example 28, 1-(5-((3-chloropyridin-4-yl)thio)-1H-imidazo[4,5-b]pyrazin-2-yl)-4-methylpiperidin-4-amine], the IC50 was < 0.5 µM.

The compound `CC1(N)CCN(c2nc3ncc(-c4cccc(Cl)c4Cl)nc3[nH]2)CC1` [Example 131, 1-[5-(2,3-Dichlorophenyl)-1H-imidazo[4,5-b]pyrazin-2-yl]-4-methylpiperidin-4-amine] registered a half-inhibitory concentration (IC50) of 0.5 to 3 µM.

`CC1(N)CCN(c2nc3nc(Sc4cccc(C(F)(F)F)n4)cnc3[nH]2)CC1` [Example 47, 4-methyl-1-(5-((6-(trifluoromethyl)pyridin-2-yl)thio)-1H-imidazo[4,5-b]pyrazin-2-yl)piperidin-4-amine] yielded an IC50 of 0.5 to 3 µM.

Consider `FC(F)(F)c1ncccc1Sc1cnc2[nH]c(Nc3ccc4n[nH]cc4c3)nc2n1` [Example 50, N-(2H-indazol-5-yl)-5-((2-(trifluoromethyl)pyridin-3-yl)thio)-1H-imidazo[4,5-b]pyrazin-2-amine], for which the IC50 was in the range of 0.5 to 3 µM.

Take `Cc1cc(Sc2cnc3[nH]c(N4CCC(C)(N)CC4)nc3n2)c2ccccc2n1` [Example 106, 4-methyl-1-(5-((2-methylquinolin-4-yl)thio)-1H-imidazo[4,5-b]pyrazin-2-yl)piperidin-4-amine]: the half-maximal inhibitory concentration (IC50) was > 3 µM.

Compound `FC(F)(F)c1ncccc1Sc1cnc2[nH]c(NCCc3cn4ccccc4n3)nc2n1` [Example 43, N-(2-(imidazo[1,2-a]pyridin-2-yl)ethyl)-5-((2-(trifluoromethyl)pyridin-3-yl)thio)-1H-imidazo[4,5-b]pyrazin-2-amine] gave an IC50 of 0.5 to 3 µM.

For `CC1(N)CCN(c2nc3nc(Sc4ccnc5c(C(F)(F)F)cccc45)cnc3[nH]2)CC1` [Example 97], the IC50 is 0.5 to 3 µM.

Compound `FC(F)(F)c1ncccc1Sc1cnc2[nH]c(N3CCCCC3)nc2n1` [Example 31, 2-(piperidin-1-yl)-5-((2-(trifluoromethyl)pyridin-3-yl)thio)-1H-imidazo[4,5-b]pyrazine] registered an IC50 of 0.5 to 3 µM.

Consider `CC1(N)CCN(c2nc3ncc(Sc4ccccc4)nc3[nH]2)CC1` [Example 11, 4-methyl-1-(6-(phenylthio)-1H-imidazo[4,5-b]pyrazin-2-yl)piperidin-4-amine], for which the IC50 lay in the range of 0.5 to 3 µM.

`FC(F)(F)c1ncccc1Sc1cnc2[nH]c(NC3CC4(CNC4)C3)nc2n1` [Example 84, N-(2-azaspiro[3.3]heptan-6-yl)-5-((2-(trifluoromethyl)pyridin-3-yl)thio)-1H-imidazo[4,5-b]pyrazin-2-amine] returned an IC50 of 0.5 to 3 µM.

Take `NC1CCC2OC1CC2Nc1nc2nc(Sc3cccnc3C(F)(F)F)cnc2[nH]1` (stereo not shown) [Example 109, N6-(5-((2-(trifluoromethyl)pyridin-3-yl)thio)-1H-imidazo[4,5-b]pyrazin-2-yl)-8-oxabicyclo[3.2.1]octane-2,6-diamine]: the IC50 is > 3 µM.

Consider `OCCN1CCCN(c2nc3nc(Sc4cccnc4C(F)(F)F)cnc3[nH]2)CC1` [Example 79, 2-(4-(5-((2-(trifluoromethyl)pyridin-3-yl)thio)-1H-imidazo[4,5-b]pyrazin-2-yl)-1,4-diazepan-1-yl)ethan-1-ol], for which the IC50 fell in the range of 0.5 to 3 µM.

With `NC1CCN(c2nc3nc(Sc4cccnc4C(F)(F)F)cnc3[nH]2)CC1` [Example 7, 1-(5-((2-(trifluoromethyl)pyridin-3-yl)thio)-1H-imidazo[4,5-b]pyrazin-2-yl)piperidin-4-amine], the concentration for half-maximal inhibition (IC50) is 0.5 to 3 µM.

For `CS(=O)(=O)NC1CCN(c2nc3nc(Sc4cccnc4C(F)(F)F)cnc3[nH]2)CC1` [Example 40, N-(1-(5-((2-(trifluoromethyl)pyridin-3-yl)thio)-1H-imidazo[4,5-b]pyrazin-2-yl)piperidin-4-yl)methanesulfonamide], the half-maximal inhibitory concentration (IC50) was > 3 µM.

Turning to `CC1(N)CCN(c2nc3nc(Sc4ccc5ccccc5c4)cnc3[nH]2)CC1` [Example 81, 4-methyl-1-(5-(naphthalen-2-ylthio)-1H-imidazo[4,5-b]pyrazin-2-yl)piperidin-4-amine], the IC50 lay within 0.5 to 3 µM.

For the compound `CC(C)c1ccccc1Sc1cnc2[nH]c(N3CCC(C)(N)CC3)nc2n1` [Example 115, 1-(5-((2-isopropylphenyl)thio)-1H-imidazo[4,5-b]pyrazin-2-yl)-4-methylpiperidin-4-amine], the IC50 fell in the range of 0.5 to 3 µM.

For the compound `CC(C)(CNc1nc2nc(Sc3cccnc3C(F)(F)F)cnc2[nH]1)N1CCOCC1` [Example 87, N-(2-methyl-2-morpholinopropyl)-5-((2-(trifluoromethyl)pyridin-3-yl)thio)-1H-imidazo[4,5-b]pyrazin-2-amine], the IC50 is > 3 µM.

Consider `OC1CCN(c2nc3nc(Sc4cccnc4C(F)(F)F)cnc3[nH]2)CC1` [Example 41, 1-(5-((2-(trifluoromethyl)pyridin-3-yl)thio)-1H-imidazo[4,5-b]pyrazin-2-yl)piperidin-4-ol], for which the concentration for half-maximal inhibition (IC50) is > 3 µM.

In the case of `CC1(N)CCN(c2nc3nc(Sc4ccc(OC(F)(F)F)cc4)cnc3[nH]2)CC1` [Example 27, 4-methyl-1-(5-((4-(trifluoromethoxy)phenyl)thio)-1H-imidazo[4,5-b]pyrazin-2-yl)piperidin-4-amine], the IC50 was > 3 µM.

As to `CC1(N)CCN(c2nc3nc(Sc4cccc(CC(=O)O)c4)cnc3[nH]2)CC1` [Example 103, 2-(3-((2-(4-amino-4-methylpiperidin-1-yl)-1H-imidazo[4,5-b]pyrazin-5-yl)thio)phenyl)acetic acid], the IC50 is < 0.5 µM.

`CC1(N)CCN(c2nc3nc(Sc4cccc(C5CC5)c4)cnc3[nH]2)CC1` [Example 46, 1-(5-((3-cyclopropylphenyl)thio)-1H-imidazo[4,5-b]pyrazin-2-yl)-4-methylpiperidin-4-amine]: the IC50 is 0.5 to 3 µM.

For the compound `CC(C)=Cc1ccccc1Sc1cnc2[nH]c(N3CCC(C)(N)CC3)nc2n1` [Example 75, 4-methyl-1-(5-((2-(2-methylprop-1-en-1-yl)phenyl)thio)-1H-imidazo[4,5-b]pyrazin-2-yl)piperidin-4-amine], the IC50 is > 3 µM.

As for `CC1(N)CCN(c2nc3nc(Sc4cccc5c4COC5)cnc3[nH]2)CC1` [Example 77, 1-(5-((1,3-dihydroisobenzofuran-4-yl)thio)-1H-imidazo[4,5-b]pyrazin-2-yl)-4-methylpiperidin-4-amine], the IC50 was < 0.5 µM.
